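Interpolation was linear, between the two tested concentrations surrounding the appropriate level; five concentrations were tested over 48 hours in 96-well plates. GI50 = concentration required for 50% inhibition of growth.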 Calls of active or inactive are those of the source. No stated cut-off is given here; in the data, active = GI50 up to about 1.1 µM and inactive = higher.
How the values were obtained:
Experiment in all cases: growth of human tumour cells (NCI), 48 h
RXF 393 = system: RXF 393
DU-145 = system: DU-145
COLO 205 = system: COLO 205
Hs-578T = system: Hs-578T
786-0 = system: 786-0
HOP-92 = system: HOP-92
OVCAR-4 = system: OVCAR-4
K562 = system: K562
TK-10 = system: TK-10
CCRF-CEM = system: CCRF-CEM
RPMI-8226 = system: RPMI-8226
NCI-H226 = system: NCI-H226
UACC-257 = system: UACC-257
SK-MEL-5 = system: SK-MEL-5
EKVX = system: EKVX
SK-MEL-28 = system: SK-MEL-28
SK-OV-3 = system: SK-OV-3
PC-3 = system: PC-3
SF-295 = system: SF-295
SN12C = system: SN12C
U-251 = system: U-251
NCI-H460 = system: NCI-H460
OVCAR-3 = system: OVCAR-3
MDA-MB-231 = system: MDA-MB-231
SF-539 = system: SF-539
MCF7 = system: MCF7
HOP-62 = system: HOP-62
KM12 = system: KM12
CAKI-1 = system: CAKI-1
NCI-H23 = system: NCI-H23
HT-29 = system: HT-29
SW-620 = system: SW-620
HCT-116 = system: HCT-116
HCC 2998 = system: HCC 2998
UACC-62 = system: UACC-62
SK-MEL-2 = system: SK-MEL-2
T47D = system: T47D
SR = system: SR
ACHN = system: ACHN
UO-31 = system: UO-31
MDA-N = system: MDA-N
HCT-15 = system: HCT-15
MOLT-4 = system: MOLT-4
MDA-MB-435 = system: MDA-MB-435
SF-268 = system: SF-268
LOX IMVI = system: LOX IMVI
A498 = system: A498
NCI/ADR-RES = system: NCI/ADR-RES
IGROV-1 = system: IGROV-1
BT-549 = system: BT-549
SNB-75 = system: SNB-75

## COC(OC)C(O)C1OC=CC1n1cnc2c(N)ncnc21 (stereo unspecified)
RXF 393
  GI50: 13 µM (inactive)
DU-145
  GI50: > 100 µM (inactive)
COLO 205
  GI50: > 100 µM (inactive)
Hs-578T
  GI50: > 100 µM (inactive)
786-0
  GI50: > 100 µM (inactive)
HOP-92
  GI50: > 100 µM (inactive)
OVCAR-4
  GI50: > 100 µM (inactive)
K562
  GI50: > 100 µM (inactive)
TK-10
  GI50: > 100 µM (inactive)
CCRF-CEM
  GI50: > 100 µM (inactive)
RPMI-8226
  GI50: > 100 µM (inactive)
NCI-H226
  GI50: > 100 µM (inactive)
UACC-257
  GI50: > 100 µM (inactive)
SK-MEL-5
  GI50: > 100 µM (inactive)
EKVX
  GI50: > 100 µM (inactive)
SK-MEL-28
  GI50: > 100 µM (inactive)
SK-OV-3
  GI50: > 100 µM (inactive)
PC-3
  GI50: > 100 µM (inactive)
SF-295
  GI50: > 100 µM (inactive)
SN12C
  GI50: > 100 µM (inactive)
U-251
  GI50: > 100 µM (inactive)
NCI-H460
  GI50: > 100 µM (inactive)
OVCAR-3
  GI50: > 100 µM (inactive)
MDA-MB-231
  GI50: > 100 µM (inactive)
SF-539
  GI50: > 100 µM (inactive)
MCF7
  GI50: > 100 µM (inactive)
HOP-62
  GI50: > 100 µM (inactive)
KM12
  GI50: > 100 µM (inactive)
CAKI-1
  GI50: > 100 µM (inactive)
NCI-H23
  GI50: > 100 µM (inactive)
HT-29
  GI50: > 100 µM (inactive)
SW-620
  GI50: > 100 µM (inactive)
HCT-116
  GI50: > 100 µM (inactive)
HCC 2998
  GI50: > 100 µM (inactive)
UACC-62
  GI50: > 100 µM (inactive)
SK-MEL-2
  GI50: > 100 µM (inactive)
T47D
  GI50: > 100 µM (inactive)
SR
  GI50: > 100 µM (inactive)
ACHN
  GI50: > 100 µM (inactive)
UO-31
  GI50: 0.792 µM (active)
MDA-N
  GI50: > 100 µM (inactive)
HCT-15
  GI50: > 100 µM
MOLT-4
  GI50: > 100 µM (inactive)
MDA-MB-435
  GI50: > 100 µM (inactive)
SF-268
  GI50: > 100 µM (inactive)
LOX IMVI
  GI50: > 100 µM (inactive)
A498
  GI50: > 100 µM (inactive)
NCI/ADR-RES
  GI50: > 100 µM (inactive)
IGROV-1
  GI50: > 100 µM (inactive)
BT-549
  GI50: > 100 µM (inactive)
SNB-75
  GI50: 18.3 µM (inactive)

Source: ChEMBL document CHEMBL1201862, “PubChem BioAssay data set” (2004)
